Laboratory results reported in patent publication US20220249441A1, “Homodimeric Tobramycin Adjuvant Repurposes Novobiocin as an Effective Antibacterial Agent Against Gram-Negative Bacteria” (priority 2019, published 2022).

Columns and labels:
MDR A. baumannii = assay: Galleria mellonella in vivo larvae-infection model; details: single dose 100 mg/kg, agent alone; after 24 h
Protocol: Galleria mellonella In vivo Larvae-Infection Model. In vivo synergistic effects were determined using Galleria mellonella infection model, as previously described (49). Briefly, larvae were purchased from The Worm Lady Live Feeder (ON, Canada), stored in their natural habitat at 16° C., and used within 10 days of delivery. The larvae (average weight of 250 mg) were used for tolerability and efficacy studies. Tolerability study was performed by injecting a 10 μL aliquot of antimicrobial agents only at concentrations equivalent to 100 mg/kg or 200 mg/kg. The larvae (ten in each group) were incubated at 37° C. and monitored for 96 h. For efficacy studies, the virulence and bacterial load required to kill 100% of the larvae within 24 h (with no treatment) was first determined, which is approximately 10 CFU. Overnight grown culture of respective MDR A. baumannii isolate was standardized to 0.5 McFarland standard and diluted in PBS to a final concentration of 10^3 CFU/mL. A 10 μL aliquot of this solution (˜10 CFU) was injected into each larva and incubated for 3 h at 37° C. […] Larvae treated with 10 μL of PBS or high concentrations of test antibiotics served as negative and positive control, respectively. The larvae were incubated at 37° C. in Petri dishes lined with filter paper and scored for survivability every 6 h for up to 36 h. […]

A. baumannii = assay: Checkerboard assay (antibiotic + adjuvant combination MIC); type: cell-based, Acinetobacter baumannii; details: for MIC of Novobiocin +Compound 1: 1 at ≤7.1 μM; for Fold Potentiation: novobiocin + 1 at ≤7.1 μM
Protocol: (§1) Antimicrobial Susceptibility Assay. The in vitro antimicrobial activity of all compounds/antibiotics against a panel of bacteria was evaluated by microbroth dilution method in accordance with the Clinical and Laboratory Standards Institute (CLSI) guidelines (using ATCC strains as quality control strains) (54). Overnight grown bacterial cultures were diluted in saline to achieve a 0.5 McFarland turbidity, followed by 1:50 dilution in Mueller-Hinton broth (MHB) for inoculation to a final concentration of approximately 5×10^5 CFU/mL. […] The lowest concentration that prevented the visible growth of bacteria was defined as the MIC for each antimicrobial agent. The broth with or without bacterial cells was used as positive or negative control, respectively.
(§2) Checkerboard Assay. Combination studies with different antibiotics were performed in 96-well plates as previously described (19). Briefly, the antibiotic of interest was serially diluted in MHB along the abscissa while the adjuvant (tobramycin homodimer) was serially diluted in MHB along the ordinate. This creates a 10×7 matrices wherein each well consists of a combination of different antibiotic and adjuvant concentrations. Overnight grown bacterial cultures were diluted in saline to achieve a 0.5 McFarland turbidity, followed by 1:50 dilution in Mueller-Hinton broth (MHB) for inoculation to a final concentration of approximately 5×10^5 CFU/mL. […] MIC was recorded as wells with the lowest concentration of drugs with no bacterial growth. The fractional inhibitory concentration (FIC) for each antibiotic was calculated by dividing the MIC of the antibiotic in the presence of adjuvant by the MIC of the antibiotic alone. Similarly, the FIC of adjuvant was calculated by dividing the MIC of the adjuvant in the presence of antibiotic by the MIC of the adjuvant alone. FIC index is the sum of both FICs. FIC indices of ≤0.5 were deemed synergistic; >0.5-4, no interaction; and >4, antagonistic.

E. cloacae = assay: as above; type: cell-based, Enterobacter cloacae; details: for MIC of Novobiocin +Compound 1: 1 at ≤7.1 μM; for Fold Potentiation: novobiocin + 1 at ≤7.1 μM
Protocol: as §1, §2

E. coli = assay: as above; type: cell-based, Escherichia coli; details: for MIC of Novobiocin +Compound 1: 1 at ≤7.1 μM; for MIC of Novobiocin + adjuvant (7.1 μM): PMBN or 1 at 7.1 μM; for Fold Potentiation: novobiocin + 1 at ≤7.1 μM
Protocol: as §1, §2

K. pneumoniae = assay: as above; type: cell-based, Klebsiella pneumoniae; details: for MIC of Novobiocin +Compound 1: 1 at ≤7.1 μM; for Fold Potentiation: novobiocin + 1 at ≤7.1 μM
Protocol: as §1, §2

E. faecium ATCC 27270 = assay: MIC and combination against Gram-positive bacteria; type: cell-based
Protocol: (§3) Next, we investigated whether tobramycin by itself would potentiate novobiocin against Gram-negative bacteria.
as §1

MRSE 61589 = assay: MIC and combination against Gram-positive bacteria; type: cell-based
Protocol: as §3, §1

MRSA ATCC 33592 = assay: MIC and combination against Gram-positive bacteria; type: cell-based; details: MRSA ATCC 33592
Protocol: as §3, §1

A. baumannii ATCC 17978 = assay: microbe, parasite or virus in culture; type: cell-based, Acinetobacter baumannii; details: seven serial passages
Protocol: Development of Resistance Study. […] Tobramycin and colistin were included as controls. At 24-hour intervals, the cultures were assessed for growth. […] This serial passaging was repeated for 8 days.

P. aeruginosa = assay: Checkerboard assay (antibiotic + adjuvant combination MIC); type: cell-based, Pseudomonas aeruginosa; details: for MIC of Novobiocin +Compound 1: 1 at ≤7.1 μM; for MIC of Novobiocin + adjuvant (7.1 μM): PMBN or 1 at 7.1 μM

## NC[C@H]1O[C@H](O[C@H]2[C@H](OCCCCc3cn(CCCCO[C@@H]4[C@@H](O[C@H]5O[C@H](CO)[C@@H](O)[C@H](N)[C@H]5O)[C@H](N)C[C@H](N)[C@H]4O[C@H]4O[C@H](CN)[C@@H](O)C[C@H]4N)nn3)[C@@H](O[C@H]3O[C@H](CO)[C@@H](O)[C@H](N)[C@H]3O)[C@H](N)C[C@@H]2N)[C@H](N)C[C@@H]1O.O=C(O)C(F)(F)F.O=C(O)C(F)(F)F.O=C(O)C(F)(F)F.O=C(O)C(F)(F)F.O=C(O)C(F)(F)F.O=C(O)C(F)(F)F.O=C(O)C(F)(F)F.O=C(O)C(F)(F)F.O=C(O)C(F)(F)F.O=C(O)C(F)(F)F [Compound 1, Tobramycin Homodimer 1]
MDR A. baumannii
  mortality of infected larvae: 100%
A. baumannii; A. baumannii 027
  MIC of Novobiocin +Compound 1: 0.5 µg/mL
  Fold Potentiation: 16 fold
A. baumannii; A. baumannii 031
  MIC of Novobiocin +Compound 1: 0.5 µg/mL
  Fold Potentiation: 16 fold
A. baumannii; A. baumannii 92247
  MIC of Novobiocin +Compound 1: 0.25 µg/mL
  Fold Potentiation: 16 fold
A. baumannii; A. baumannii 110193
  MIC of Novobiocin +Compound 1: 1 µg/mL
  Fold Potentiation: 256 fold
A. baumannii; A. baumannii ATCC 17978
  MIC of Novobiocin +Compound 1: 0.5 µg/mL
  Fold Potentiation: 32 fold
A. baumannii; A. baumannii LAC-4
  MIC of Novobiocin +Compound 1: 0.5 µg/mL
  Fold Potentiation: 16 fold
A. baumannii; AB 92247, PMBN or 1 at 7.1 μM
  MIC of Novobiocin + adjuvant (7.1 μM): 0.25 µg/mL
A. baumannii; colistin-resistant mutant B of A. baumannii ATCC 17978
  potentiation of novobiocin: did not potentiate
A. baumannii; novobiocin-resistant mutant A of A. baumannii ATCC 17978
  fold potentiation of novobiocin: 16 fold
A. baumannii; wild-type and MDR A. baumannii clinical isolates, ≤7.1 μM of compound 1
  MIC of novobiocin in the presence of compound 1: ≤ 1 µg/mL
E. cloacae; E. cloacae 117029
  MIC of Novobiocin +Compound 1: 8 µg/mL
  Fold Potentiation: 128 fold
E. cloacae; E. cloacae 118568
  MIC of Novobiocin +Compound 1: 32 µg/mL
  Fold Potentiation: 32 fold
E. cloacae; E. cloacae 121187
  MIC of Novobiocin +Compound 1: 8 µg/mL
  Fold Potentiation: 8 fold
E. cloacae; EC 118568, PMBN or 1 at 7.1 μM
  MIC of Novobiocin + adjuvant (7.1 μM): 32 µg/mL
E. coli; E. coli 94393
  MIC of Novobiocin +Compound 1: 2 µg/mL
  MIC of Novobiocin + adjuvant (7.1 μM): 2 µg/mL
  Fold Potentiation: 64 fold
E. coli; E. coli 94474
  MIC of Novobiocin +Compound 1: 16 µg/mL
  MIC of Novobiocin + adjuvant (7.1 μM): 16 µg/mL
  Fold Potentiation: 16 fold
E. coli; E. coli 107115
  MIC of Novobiocin +Compound 1: 8 µg/mL
  Fold Potentiation: 16 fold
E. coli; E. coli ATCC 25922
  MIC of Novobiocin +Compound 1: 2 µg/mL
  Fold Potentiation: 32 fold
K. pneumoniae; K. pneumoniae 113250
  MIC of Novobiocin +Compound 1: 16 µg/mL
  Fold Potentiation: 32 fold
K. pneumoniae; K. pneumoniae 113254
  MIC of Novobiocin +Compound 1: 16 µg/mL
  Fold Potentiation: 16 fold
K. pneumoniae; K. pneumoniae 116381
  MIC of Novobiocin +Compound 1: 8 µg/mL
  Fold Potentiation: 128 fold
K. pneumoniae; KP 113254, PMBN or 1 at 7.1 μM
  MIC of Novobiocin + adjuvant (7.1 μM): 16 µg/mL
E. faecium ATCC 27270
  effect of addition of compound 1 on activity of novobiocin: did not improve
MRSE 61589
  effect of addition of compound 1 on activity of novobiocin: did not improve
MRSA ATCC 33592
  effect of addition of compound 1 on activity of novobiocin: did not improve
A. baumannii ATCC 17978
  resistance phenotype after exposure to sub-MIC levels: did not generate tobramycin-resistant phenotype
P. aeruginosa; P. aeruginosa 259-96918
  MIC of Novobiocin +Compound 1: 8 µg/mL
P. aeruginosa; P. aeruginosa 260-97103
  MIC of Novobiocin +Compound 1: 1 µg/mL
P. aeruginosa; P. aeruginosa 262-101856
  MIC of Novobiocin +Compound 1: 8 µg/mL
P. aeruginosa; P. aeruginosa 264-104354
  MIC of Novobiocin +Compound 1: 8 µg/mL
P. aeruginosa; P. aeruginosa 91433
  MIC of Novobiocin +Compound 1: 1 µg/mL
P. aeruginosa; P. aeruginosa 100036
  MIC of Novobiocin +Compound 1: 8 µg/mL
P. aeruginosa; P. aeruginosa 101243
  MIC of Novobiocin +Compound 1: 1 µg/mL
P. aeruginosa; P. aeruginosa 101885
  MIC of Novobiocin +Compound 1: 8 µg/mL
P. aeruginosa; P. aeruginosa 114228
  MIC of Novobiocin +Compound 1: 16 µg/mL
P. aeruginosa; P. aeruginosa PAO1
  MIC of Novobiocin +Compound 1: 4 µg/mL
P. aeruginosa; PA 91433
  MIC of Novobiocin + adjuvant (7.1 μM): 1 µg/mL
P. aeruginosa; PA 101243
  MIC of Novobiocin + adjuvant (7.1 μM): 1 µg/mL
P. aeruginosa; PA 114228
  MIC of Novobiocin + adjuvant (7.1 μM): 16 µg/mL
P. aeruginosa; PAO1 (wild-type)
  MIC of Novobiocin +7.1 μM Compound 1: 4 µg/mL
P. aeruginosa; PAO1
  MIC of Novobiocin + adjuvant (7.1 μM): 4 µg/mL
P. aeruginosa; PAO200 (efflux-deficient)
  MIC of Novobiocin +7.1 μM Compound 1: 0.125 µg/mL
P. aeruginosa; PAO750 (efflux-deficient)
  MIC of Novobiocin +7.1 μM Compound 1: 0.125 µg/mL
